In US7928239B2, “Inhibition of RAF kinase using quinolyl, isoquinolyl or pyridyl ureas” (Bayer Healthcare LLC, priority 1999, dated 2011) one finds melting point data, which are given here for two compounds.

Molecules are shown by their SMILES.

For orientation: melting point means the temperature, or range, at which the solid turns liquid.

Consider `CNC(=O)c1ccc(Oc2ccc(NC(=O)Nc3ccc(Cl)c(C(F)(F)F)c3)cc2)cn1` [Entry 56, N-(4-chloro-3-(trifluoromethyl)phenyl)-N′-(4-(2-(N-methylcarbamoyl)-5-pyridyloxy)phenyl) urea], for which the melting point lay within 238 to 245 °C.
Next, `CNC(=O)c1cc(Oc2ccc(NC(=O)Nc3ccc(Oc4ccnc(C(=O)NC)c4)cc3)cc2)ccn1` [Entry 103, bis(4-(2-(N-methylcarbamoyl)-4-pyridyloxy)phenyl) urea]: 125 to 130 °C.
